From patent publication US10239870B2, “Dopamine D3 receptor antagonists” (priority 2014, dated 2019)

Each compound was assayed against hD2 recombinant receptor (human dopamine receptor type 2, long variant, CHO-Gα16-hD2L membranes) (Homo sapiens (Human), UniProt P14416). Settings: displacement of 0.08 nM [3H]-Spiperone.

Point of comparison: `CC(=O)N1CCC(c2nnc(SCCCN3CC[C@]4(C[C@@H]4c4ccc(C(F)(F)F)cc4F)C3)n2C)CC1` [Example 101, 1-{4-[5-({3-[(1S,3S/1R,3R)-1-[2-fluoro-4-(trifluoromethyl)phenyl]-5-azaspiro[2.4]heptan-5-yl]propyl}sulfanyl)-4-methyl-4H-1,2,4-triazol-3-yl]piperidin-1-yl}ethan-1-one], “D2 pKi” value 5.99. Against it:
- Cn1c(SCCCN2CC[C@]3(CC3c3ccc(C(F)(F)F)cc3)C2)nnc1-c1ccc[nH]c1=O (stereo partly drawn) [Example 124, 3-[4-methyl-5-({3-[(1R,3S/1S,3R)-1-[4-(trifluoromethyl)phenyl]-5-azaspiro[2.4]heptan-5-yl]propyl}sulfanyl)-4H-1,2,4-triazol-3-yl]-1,2-dihydropyridin-2-one] — lower, 5.32
- Cc1cnc(-c2nnc(SCCCN3CC[C@]4(CC4c4ccc(C(F)(F)F)cc4)C3)n2C)cn1 (stereo partly drawn) [Example 223, (1R,3S/1S,3R)-5-(3-{[4-methyl-5-(5-methylpyrazin-2-yl)-4H-1,2,4-triazol-3-yl]sulfanyl}propyl)-1-[4-(trifluoromethyl)phenyl]-5-azaspiro[2.4]heptane] — within 0.2 log units, 6.00
- CC(=O)N1CC(c2nnc(SCCCN3CC[C@]4(C[C@@H]4c4ccc(C(F)(F)F)cc4)C3)n2C)C1 [Example 107, 1-{3-[4-methyl-5-({3-[(1R,3S/1S,3R)-1-[4-(trifluoromethyl)phenyl]-5-azaspiro[2.4]heptan-5-yl]propyl}sulfanyl)-4H-1,2,4-triazol-3-yl]azetidin-1-yl}ethan-1-one] — lower, 5.56
- Cn1c(SCCCN2CC[C@]3(CC3c3ccc(C(F)(F)F)cc3)C2)nnc1-c1cccnc1F (stereo partly drawn) [Example 173, (1R,3S/1S,3R)-5-(3-{[5-(2-fluoropyridin-3-yl)-4-methyl-4H-1,2,4-triazol-3-yl]sulfanyl}propyl)-1-[4-(trifluoromethyl)phenyl]-5-azaspiro[2.4]heptane] — lower, 5.75
- Cn1cccc1-c1nnc(SCCCN2CC[C@]3(CC3c3ccc(C(F)(F)F)cc3)C2)n1C (stereo partly drawn) [Example 258, (1R,3S/1S,3R)-5-(3-{[4-methyl-5-(1-methyl-1H-pyrrol-2-yl)-4H-1,2,4-triazol-3-yl]sulfanyl}propyl)-1-[4-(trifluoromethyl)phenyl]-5-azaspiro[2.4]heptane] — higher, 6.26
- Cc1ncoc1-c1nnc(SCCCN2CC[C@]3(CC3c3ccc(C(F)(F)F)nc3)C2)n1C (stereo partly drawn) [Example 61, (1R,3S/1S,3R)-5-(3-{[4-methyl-5-(4-methyl-1,3-oxazol-5-yl)-4H-1,2,4-triazol-3-yl]sulfanyl}propyl)-1-[6-(trifluoromethyl)pyridin-3-yl]-5-azaspiro[2.4]heptane] — lower, 5.63
- COCCC(=O)N1CCC(c2nnc(SCCCN3CC[C@]4(C[C@@H]4c4ccc(C(F)(F)F)cc4)C3)n2C)CC1.Cl [Example 104, 3-methoxy-1-{4-[4-methyl-5-({3-[(1R,3S)-1-[4-(trifluoromethyl)phenyl]-5-azaspiro[2.4]heptan-5-yl]propyl}sulfanyl)-4H-1,2,4-triazol-3-yl]piperidin-1-yl}propan-1-one hydrochloride] — within 0.2 log units, 5.80
- Cc1ncccc1-c1nnc(SCCCN2CC[C@]3(CC3c3ccccc3C(F)(F)F)C2)n1C.Cl.Cl (stereo partly drawn) [Example 168, (1S,3S/1R,3R)-5-(3-{[4-methyl-5-(2-methylpyridin-3-yl)-4H-1,2,4-triazol-3-yl]sulfanyl}propyl)-1-[2-(trifluoromethyl)phenyl]-5-azaspiro[2.4]heptane dihydrochloride] — higher, 6.44
- CN(C)C(=O)c1cccc(-c2nnc(SCCCN3CC[C@]4(C[C@@H]4c4ccc(C(F)(F)F)cc4)C3)n2C)n1.Cl [Example 197, N,N-dimethyl-6-[4-methyl-5-({3-[(1R,3S)-1-[4-(trifluoromethyl)phenyl]-5-azaspiro[2.4]heptan-5-yl]propyl}sulfanyl)-4H-1,2,4-triazol-3-yl]pyridine-2-carboxamide hydrochloride] — lower, 5.66
- Cc1nccnc1-c1nnc(SCCCN2CC[C@]3(C[C@@H]3c3ccc(C(F)(F)F)cc3)C2)n1C [Example 224, (1R,3S/1S,3R)-5-(3-{[4-methyl-5-(3-methylpyrazin-2-yl)-4H-1,2,4-triazol-3-yl]sulfanyl}propyl)-1-[4-(trifluoromethyl)phenyl]-5-azaspiro[2.4]heptane] — within 0.2 log units, 5.85
- Cc1cncc(-c2nnc(SCCCN3CC[C@]4(CC4c4ccc(C(F)(F)F)cc4)C3)n2C)n1 (stereo partly drawn) [Example 222, (1R,3S/1S,3R)-5-(3-{[4-methyl-5-(6-methylpyrazin-2-yl)-4H-1,2,4-triazol-3-yl]sulfanyl}propyl)-1-[4-(trifluoromethyl)phenyl]-5-azaspiro[2.4]heptane] — within 0.2 log units, 5.91
- Cc1ccc(-c2nnc(SCCCN3CC[C@]4(CC4c4ccc(C(F)(F)F)cc4)C3)n2C)cn1 (stereo partly drawn) [Example 169, (1R,3S/1S,3R)-5-(3-{[4-methyl-5-(6-methylpyridin-3-yl)-4H-1,2,4-triazol-3-yl]sulfanyl}propyl)-1-[4-(trifluoromethyl)phenyl]-5-azaspiro[2.4]heptane] — within 0.2 log units, 6.01
- Cn1c(SCCCN2CC[C@]3(CC3c3ccc(C(F)(F)F)cc3)C2)nnc1-c1cccc(=O)[nH]1 (stereo partly drawn) [Example 122, 6-[4-methyl-5-({3-[(1R,3S/1S,3R)-1-[4-(trifluoromethyl)phenyl]-5-azaspiro[2.4]heptan-5-yl]propyl}sulfanyl)-4H-1,2,4-triazol-3-yl]-1,2-dihydropyridin-2-one] — higher, 6.34
- Cn1c(SCCCN2CC[C@]3(CC3c3ccc(F)cc3)C2)nnc1-c1ccc(=O)[nH]c1 (stereo partly drawn) [Example 131, 5-[5-({3-[(1R,3S/1S,3R)-1-(4-fluorophenyl)-5-azaspiro[2.4]heptan-5-yl]propyl}sulfanyl)-4-methyl-4H-1,2,4-triazol-3-yl]-1,2-dihydropyridin-2-one] — within 0.2 log units, 6.16
- Cc1nnc2ccc(-c3nnc(SCCCN4CC[C@]5(C[C@@H]5c5ccc(C(F)(F)F)cc5)C4)n3C)cn12 [Example 271, (1R,3S)-5-{3-[(4-methyl-5-{3-methyl-[1,2,4]triazolo[4,3-a]pyridin-6-yl}-4H-1,2,4-triazol-3-yl)sulfanyl]propyl}-1-[4-(trifluoromethyl)phenyl]-5-azaspiro[2.4]heptane] — within 0.2 log units, 5.91
- Cl.Cn1c(SCCCN2CC[C@]3(C[C@@H]3c3ccc(C(F)(F)F)cc3)C2)nnc1-c1ccc(-c2nnco2)cc1 [Example 274, (1R,3S)-5-[3-({4-methyl-5-[4-(1,3,4-oxadiazol-2-yl)phenyl]-4H-1,2,4-triazol-3-yl}sulfanyl)propyl]-1-[4-(trifluoromethyl)phenyl]-5-azaspiro[2.4]heptane] — higher, 6.52
- Cc1nnsc1-c1nnc(SCCCN2CC[C@]3(C[C@@H]3c3ccc(C(F)(F)F)cc3)C2)n1C.Cl [Example 262, (1R,3S)-5-(3-{[4-methyl-5-(4-methyl-1,2,3-thiadiazol-5-yl)-4H-1,2,4-triazol-3-yl]sulfanyl}propyl)-1-[4-(trifluoromethyl)phenyl]-5-azaspiro[2.4]heptane] — within 0.2 log units, 6.18
- Cl.Cn1c(SCCCN2CC[C@]3(C[C@@H]3c3ccc(C(F)(F)F)cc3)C2)nnc1-c1cccn2cnnc12 [Example 267, (1R,3S)-5-{3-[(4-methyl-5-{[1,2,4]triazolo[4,3-a]pyridin-8-yl}-4H-1,2,4-triazol-3-yl)-sulfanyl]propyl}-1-[4-(trifluoromethyl)phenyl]-5-azaspiro[2.4]heptane] — lower, 5.38
- Cn1c(SCCCN2CC[C@]3(C[C@@H]3c3ccc(C(F)(F)F)cc3)C2)nnc1-c1cnc(C(N)=O)cn1 [Example 228, 5-[4-methyl-5-({3-[(1R,3S)-1-[4-(trifluoromethyl)phenyl]-5-azaspiro[2.4]heptan-5-yl]propyl}sulfanyl)-4H-1,2,4-triazol-3-yl]pyrazine-2-carboxamide] — higher, 6.33
- Cn1c(SCCCN2CC[C@]3(CC3c3ccccc3C(F)(F)F)C2)nnc1-c1ccc(=O)[nH]c1 (stereo partly drawn) [Example 132, 5-[4-methyl-5-({3-[(1S,3S/1R,3R)-1-[2-(trifluoromethyl)phenyl]-5-azaspiro[2.4]heptan-5-yl]propyl}sulfanyl)-4H-1,2,4-triazol-3-yl]-1,2-dihydropyridin-2-one] — higher, 6.87
- Cn1c(SCCCN2CC[C@]3(CC3c3ccc(C(F)(F)F)cc3)C2)nnc1C1CCC(N)CC1 (stereo partly drawn) [Example 108, 4-[4-methyl-5-({3-[(1R,3S/1S,3R)-1-[4-(trifluoromethyl)phenyl]-5-azaspiro[2.4]heptan-5-yl]propyl}sulfanyl)-4H-1,2,4-triazol-3-yl]cyclohexan-1-amine] — higher, 6.72
- Cn1c(SCCCN2CC[C@]3(CC3c3ccc(C(F)(F)F)cc3F)C2)nnc1-c1cccc(=O)[nH]1 (stereo partly drawn) [Example 123, 6-[5-({3-[(1R,3S/1S,3R)-1-[2-fluoro-4-(trifluoromethyl)phenyl]-5-azaspiro[2.4]heptan-5-yl]propyl}sulfanyl)-4-methyl-4H-1,2,4-triazol-3-yl]-1,2-dihydropyridin-2-one] — within 0.2 log units, 6.00
- Cc1ccc(C(N)=O)nc1-c1nnc(SCCCN2CC[C@]3(C[C@@H]3c3ccc(C(F)(F)F)cc3)C2)n1C.Cl [Example 199, 5-methyl-6-[4-methyl-5-({3-[(1R,3S)-1-[4-(trifluoromethyl)phenyl]-5-azaspiro[2.4]heptan-5-yl]propyl}sulfanyl)-4H-1,2,4-triazol-3-yl]pyridine-2-carboxamide hydrochloride] — within 0.2 log units, 5.81
- Cn1c(SCCCN2CC[C@]3(C[C@H]3c3ccc(C(F)(F)F)cc3F)C2)nnc1-c1ccncc1 [Example 164, (1R,3S/1S,3R)-1-[2-fluoro-4-(trifluoromethyl)phenyl]-5-(3-{[4-methyl-5-(pyridin-4-yl)-4H-1,2,4-triazol-3-yl]sulfanyl}propyl)-5-azaspiro[2.4]heptane] — higher, 6.23
- CNC(=O)c1cccc(-c2nnc(SCCCN3CC[C@]4(C[C@@H]4c4ccc(C(F)(F)F)cc4)C3)n2C)n1.Cl [Example 195, N-methyl-6-[4-methyl-5-({3-[(1R,3S)-1-[4-(trifluoromethyl)phenyl]-5-azaspiro[2.4]heptan-5-yl]propyl}sulfanyl)-4H-1,2,4-triazol-3-yl]pyridine-2-carboxamide hydrochloride] — within 0.2 log units, 5.84
